Experimental data published in paper PMC5854708, “Grass Carp Prolactin Gene: Structural Characterization and Signal Transduction for PACAP-induced Prolactin Promoter Activity” (Scientific Reports, 2018).
pEC50: −log10 of the molar value.

How the values were obtained:
ERK in GH3 cells = settings: cited from earlier work
Text: (§1) In primary pituitary cells, PRL production induced by PACAP via functional coupling of cAMP/PKA−, Ca^2+/CaM−, and MAPK-dependent cascades. At the transcription level, cAMP/PKA and Ca^2+/CaM/CaM-II pathways are consistently involved in the PACAP regulation on PRL promoter activity. In mammalian cell models, e.g., in human SH-SY5Y neuroblastoma cells, functional coupling of MAPK (e.g., Erk1/2 and P38^MAPK) with cAMP-dependent mechanism has been reported. […] However, in our studies with αT3-1 cells, the inhibitors f ...

ERK in αT3–1 cells = settings: cited from earlier work
Text: as §1

[1] = system: pCREB in grass carp pituitary cells; test: Western blot of pCREB in primary grass carp pituitary cells; settings: oPACAP38, 24 hrs
[2] = system: PRL secretion / PRL mRNA in grass carp pituitary cells; settings: cited from earlier work
Text: In carp model, PACAP nerve fibers can be identified in anterior pituitary overlapping with the distribution of lactotrophs. Furthermore, PAC1 receptors could be detected in grass carp lactotrophs.

[3] = system: PI3K-dependent cascades in neutrophils; settings: human neutrophils; cited from earlier work
Text: (§2) Given that PACAP has been reported to activate MAPK (e.g., in human SH-SY5Y neuroblastoma cells)[24], and PI3K-dependent cascades (e.g., in human neutrophils)[25], the functional role of MAPK and PI3K in PACAP-induced grass carp promoter activity were also examined. […] However, parallel treatment with the PI3K inhibi ...

[4] = system: MAPK in SH-SY5Y neuroblastoma cells; settings: human SH-SY5Y neuroblastoma cells; cited from earlier work
Text: as §2

[5] = system: grass carp PRL promoter (pPRL(−1156).Luc) in αT3-1 cells; format: cell-based, grass carp (promoter); rat (αT3-1 cells, as printed); settings: 0.1–1000 nM, 24 hr, n = 4
Procedure: The cells were then cultured for 18 hr recovery before drug treatment. (A) Time course analysis on the effect of oPACAP38 (6–48 hrs) on grass carp PRL promoter activity in αT3-1 cells. (B) αT3-1 cells over-expressed pPRL(−1156).LUC were treated for 24 hrs with increasing doses of oPACAP38. Effects of PACAP and VIP antagonists on PACAP-induced PRL mRNA expression were also investigated. In these experiments, αT3-1 cells over-expressed pPRL(−1156).LUC were challenged with oPACAP38 (10 nM, 24 hr) in the presence or absence of (C) the PACAP antagonist PACAP6-38 (10 nM) or (D) VIP antagonist (4-Cl-D-Phe6, Leu17)VIP (“VIP-R antagonist”, 100 nM).
After 18 h recovery, the cells were incubated with respective drugs. (A) αT3-1 cells over-expressed pPRL(−1156).LUC were treated for 24 hrs with increasing doses of cpt-cAMP (1–100 μM). (B) αT3-1 cells over-expressed pPRL(−1156).LUC were treated for 24 hrs with increasing doses of Forskolin (10–1000 nM). Effects of cAMP/PKA inhibitors on PACAP-induced PRL mRNA expression were then investigated. αT3-1 cells over-expressed pPRL(−1156).LUC were challenged with oPACAP38 (10 nM, 24 hr) in the presence or absence of (C) AC inhibitor MDL12330A (10 μM) or (D) PKA blocker H89 (10 μM).
After 18 h recovery, the cells were incubated with respective drugs. The cells were treated for 24 hr with increasing doses of (A) Ca^2+ ionophore A23187 or (B) L-type VSCC activator Bay K8644. Inhibiting extracellular Ca^2+ entry on PRL mRNA expression in carp pituitary cells was examined. In this study, αT3-1 cells over-expressed pPRL(−1156).LUC were treated with (C) oPACAP38 (10 nM, 24 hrs) or (D) Forskolin (100 nM, 24 hrs) in the Ca^2+-free medium (with different doses of EGTA).
After 18 h recovery, the cells were incubated with respective drugs.

αT3-1 cells, total IP = test: Total inositol phosphate measurement in αT3-1 cells; format: cell-based, rat (αT3-1 cells, as printed); settings: myo-[3H] inositol labelled αT3-1 cells, 10 mM LiCl; treatment 45 min; GnRH 1 μM
Procedure: Figure 7 Functional role of the PLC/IP3/PKC and CaM/CaMK-II cascades in PACAP- and Forskolin-induced PRL promoter activity. αT3-1 cells were transiently transfected with pPRL(−1156).LUC for 6 h by using lipofectamine. After 18 h recovery, the cells were incubated with respective drugs. […] (B) Transfected αT3-1 cells were labeled with 2 μCi/well of myo-[3 H] inositol (DuPont/NEN) in myo-inositol free DMEM medium containing 10% fetal bovine serum and then treated with oPACAP38, VIP, and GnRH for 45 mins. The total IP production were analyzed by detecting the radio-labelled inositol incorporation.
Transfected αT3-1 cells were labeled with 2 μCi/well of myo-[^3H] inositol (DuPont/NEN) in myo-inositol free DMEM medium containing 10% fetal bovine serum. After incubation for 12 hr at 37 °C, myo-[^3H] inositol labeling medium was removed, and αT3-1 cells were washed two times with prewarmed phosphate buffered saline (PBS; pH 7.4) to remove trace of the excessive myo-[^3H] inositol. The transfected cells were then incubated in DMEM containing 0.1% BSA and 10 mM LiCl (to inhibit inositol phosphate degradation) for 20 min at 37 °C before drug treatment. After that, the transfected cells were treated with ovine PACAP38, VIP, and GnRH for 45 min. […] Levels of radioactivity in these samples were measured using a liquid scintillation counter (Beckman).

## pituitary adenylate cyclase-activating peptide [PACAP]
ERK in GH3 cells
  ERK activation: triggered ERK activation
ERK in αT3–1 cells
  ERK activation: stimulates ERK activation
[1]
  CREB phosphorylation: significantly enhanced CREB phosphorylation
[2]
  PRL mRNA expression: up-regulated
  PRL secretion: up-regulated
[3]
  activation of PI3K-dependent cascades: activate
[4]
  MAPK activation: activate MAPK
[5]
  concentration of maximal response, luciferase activity: 1000 nM
  dose dependence of luciferase activity expression: up-regulate luciferase activity expression in a dose-dependent manner
[5]; read-out: EC50 value, luciferase activity (PRL promoter activity)
  pEC50: 8.35
αT3-1 cells, total IP
  total IP level: enhance total IP level
